In patent publication US8088806B2 (Achillion Pharmaceuticals, Inc., priority 2005, dated 2012):

What follows are molecules tested on HCV replicon (assay: Replicon based assay of HCV replication inhibition (NPT ELISA)). Conditions: Hepatitis C virus, replicon based assay of HCV replication inhibition; Table II; read-out: Activity.
Format: cell-based, Hepatitis C virus
Summary of the method: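 NPT (neomycin phosphotransferase) content, proportional to replicon replication, quantified by capture ELISA on day four. Before that, replicon-bearing Huh-7 cells in G418-free screening medium were exposed three days at 37° C to compound, typically six doses from 10 to 0.03 micromolar, with equal DMSO across wells.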

SMILES | EC50 [µM]
CCCCCOc1ccc(Nc2nc(C3=NN=C(N)SC3)cs2)cc1C(F)(F)F [compound 229, 5-(2-(4-(pentyloxy)-3-(trifluoromethyl)phenyl-amino)thiazol-4-yl)-6H-1,3,4-thiazdiazin-2-amine] | < 1
CCCCCOc1ccc(Nc2nc(CN3CCCCC3)cs2)cc1C(F)(F)F [compound 230, N-(4-(pentyloxy)-3-(trifluoromethyl)phenyl)-4-(piperidin-1-ylmethyl)thiazol-2-amine] | 1 to 10
CCCCCOc1ccc(Nc2nc(CN3CCC(C)CC3)cs2)cc1C(F)(F)F [compound 231, 4-((4-methylpiperidin-1-yl)methyl)-N-(4-(pentyloxy)-3-(trifluoromethyl)phenyl)thia-zol-2-amine] | < 1
CCCCCOc1ccc(Nc2nc(C(=O)Nc3ccncc3)cs2)cc1C(F)(F)F [compound 232, 2-(4-(pentyloxy)-3-(trifluoromethyl)phenyl-amino)-N-(pyridin-4-yl)thiazole-4-carboxamide] | 1 to 10
CCCCCOc1ccc(Nc2nc(C(=O)Nc3ccc(C(F)(F)F)nc3)cs2)cc1C(F)(F)F [compound 233, 2-(4-(pentyloxy)-3-(trifluoromethyl)phenyl-amino)-N-(6-(trifluoromethyl)pyridin-3-yl)thiazole-4-carboxamide] | > 10
CCCCCOc1ccc(Nc2nc(-c3ccc(CN(C)C)cc3)cs2)cc1C(F)(F)F [compound 234, 4-(4-((dimethylamino)methyl)phenyl)-N-(4-(pentyloxy)-3-(trifluoromethyl)phenyl)thia-zol-2-amine] | < 1
CCCCCOc1ccc(Nc2nc([C@H]3CCCN(C)C3)cs2)cc1C(F)(F)F [compound 235, (S)-4-(1-methylpiperidin-3-yl)-N-(4-(pentyloxy)-3-(trifluoromethyl)phenyl)thia-zol-2-amine] | < 1
CN1CCC[C@H](c2csc(Nc3ccc(Oc4ccccc4)cc3)n2)C1 [compound 236, (S)-4-(1-methylpiperidin-3-yl)-N-(4-phenoxyphenyl)thiazol-2-amine] | 1 to 10
CN1CCC[C@H](c2csc(Nc3cccc(OCc4ccccc4)c3)n2)C1 [compound 237, (S)-N-(3-(benzyloxy)phenyl)-4-(1-methylpiperidin-3-yl)thiazol-2-amine] | 1 to 10
FC(F)(F)c1cc(Nc2nc(-c3cccnc3)cs2)ccc1OC1CCCC1 [compound 238, N-(4-(cyclopentyloxy)-3-(trifluoromethyl)phenyl)-4-(pyridin-3-yl)thiazol-2-amine] | < 1
CC(C)COc1ccc(Nc2nc(-c3cccnc3)cs2)cc1C(F)(F)F [compound 239, N-(4-isobutoxy-3-(trifluoromethyl)phenyl)-4-(pyridin-3-yl)thiazol-2-amine] | < 1
FC(F)(F)c1cc(Nc2nc(-c3cccnc3)cs2)ccc1OCC1CC1 [compound 240, N-(4-(cyclopropylmethoxy)-3-(trifluoromeethyl)phenyl)-4-(pyridin-3-yl)thiazol-2-amine] | < 1
Fc1ccc(-c2csc(Nc3ccc(OC4CCCC4)c(C(F)(F)F)c3)n2)cc1 [compound 241, N-(4-(cyclopentyloxy)-3-(trifluoromethyl)phenyl)-4-(4-fluorophenyl)thiazol-2-amine] | < 1
CC(C)COc1ccc(Nc2nc(-c3ccc(F)cc3)cs2)cc1C(F)(F)F [compound 242, 4-(4-fluorophenyl)-N-(4-isobutoxy-3-(trifluoromethyl)phenyl)thia-zol-2-amine] | < 1
Fc1ccc(-c2csc(Nc3ccc(OCC4CC4)c(C(F)(F)F)c3)n2)cc1 [compound 243, N-(4-(cyclopropylmethoxy)-3-(trifluoromethyl)phenyl)-4-(4-fluorophenyl)thiazol-2-amine] | < 1
CC(C)COc1ccc(Nc2nc(-c3ccc(CC(=O)O)s3)cs2)cc1C(F)(F)F [compound 244, 2-(5-(2-(4-isobutoxy-3-(trifluoromethyl)phenyl-amino)thiazol-4-yl)thiophen-2-yl)acetic acid] | < 1
Cc1sc(Nc2ccc(OC3CCCC3)c(C(F)(F)F)c2)nc1-c1ccc(CC(=O)O)cc1 [compound 245, 2-(4-(2-(4-(cyclopentyloxy)-3-(trifluoromethyl)phenyl-amino)-5-methylthiazol-4-yl)phenyl)acetic acid] | < 1
Cc1sc(Nc2ccc(OCC(C)C)c(C(F)(F)F)c2)nc1-c1ccc(CC(=O)O)cc1 [compound 246, 2-(4-(2-(4-isobutoxy-3-(trifluoromethyl)phenyl-amino)-5-methylthiazol-4-yl)phenyl)acetic acid] | 1 to 10
O=C(O)Cc1ccc(-c2csc(Nc3ccc(OC4CCCC4)c(C(F)(F)F)c3)n2)s1 [compound 247, 2-(5-(2-(4-(cyclopentyloxy)-3-(trifluoromethyl)phenyl-amino)-thiazol-4-yl)thiophen-2-yl)acetic acid] | < 1

SMILES | EC50 [µM]
COc1ccc(-c2csc(Nc3ccc(OC4CCCC4)c(C(F)(F)F)c3)n2)cc1 [compound 248, N-(4-(cyclopentyloxy)-3-(trifluoromethyl)phenyl)-4-(4-methoxyphenyl)thiazol-2-amine] | < 1
COc1ccc(-c2csc(Nc3ccc(OCC(C)C)c(C(F)(F)F)c3)n2)cc1 [compound 249, N-(4-isobutoxy-3-(trifluoromethyl)phenyl)-4-(4-methoxyphenyl)thiazol-2-amine] | < 1
COc1ccc(-c2csc(Nc3ccc(OCC4CC4)c(C(F)(F)F)c3)n2)cc1 [compound 250, N-(4-(cyclopropylmethoxy)-3-(trifluoromethyl)phenyl)-4-(4-methoxyphenyl)thiazol-2-amine] | < 1
O=C1COc2ccc(-c3csc(Nc4ccc(OC5CCCC5)c(C(F)(F)F)c4)n3)cc2N1 [compound 251, 6-(2-(4-(cyclopentyloxy)-3-(trifluoromethyl)phenyl-amino)thiazol-4-yl)-2H-benzo[b][1,4]oxazin-3(4H)-one] | < 1
CC(C)COc1ccc(Nc2nc(-c3ccc4c(c3)NC(=O)CO4)cs2)cc1C(F)(F)F [compound 252, 6-(2-(4-isobutoxy-3-(trifluoromethyl)phenyl-amino)thiazol-4-yl)-2H-benzo[b][1,4]oxazin-3(4H)-one] | < 1
O=C1COc2ccc(-c3csc(Nc4ccc(OCC5CC5)c(C(F)(F)F)c4)n3)cc2N1 [compound 253, 6-(2-(4-(cyclopropylmethoxy)-3-(trifluoromthyl)phenyl-amino)thiazol-4-yl)-2H-benzo[b][1,4]oxazin-3(4H)-one] | 1 to 10
NC(=O)c1cc(-c2csc(Nc3ccc(OC4CCCC4)c(C(F)(F)F)c3)n2)ccc1O [compound 254, 5-(2-(4-(cyclopentyloxy)-3-(trifluoromethyl)phenyl-amino)thiazol-4-yl)-2-hydroxybenzamide] | < 1
CC(C)COc1ccc(Nc2nc(-c3ccc(O)c(C(N)=O)c3)cs2)cc1C(F)(F)F [compound 255, 2-hydroxy-5-(2-(4-isobutoxy-3-(trifluoromethyl)phenyl-amino)thiazol-4-yl)benzamide] | < 1
NC(=O)c1cc(-c2csc(Nc3ccc(OCC4CC4)c(C(F)(F)F)c3)n2)ccc1O [compound 256, 5-(2-(4-(cyclopropylmethoxy)-3-(trifluoromethyl)phenyl-amino)thiazol-4-yl)-2-hydroxybenzamide] | < 1
Fc1ccc(-c2csc(Nc3ccc(OC4CCCC4)c(C(F)(F)F)c3)n2)cc1F [compound 257, N-(4-(cyclopentyloxy)-3-(trifluoromethyl)phenyl)-4-(3,4-difluorophenyl)thiazol-2-amine] | < 1
Cc1sc(Nc2ccc(OCC3CC3)c(C(F)(F)F)c2)nc1-c1ccc(CC(=O)O)cc1 [compound 258, 2-(4-(2-(4-(cyclopropylmethoxy)-3-(trifluoromethyl)phenyl-amino)-5-methylthiazol-4-yl)phenyl)acetic acid] | < 1
CCCCCOc1ccc(Nc2nc(-c3ccc(C(=O)NC)nc3)cs2)cc1C(F)(F)F [compound 259, N-methyl-5-(2-(4-(pentyloxy)-3-(trifluoromethyl)phenyl-amino)thiazol-4-yl)picolinamide] | < 1
CCCCCOc1ccc(Nc2nc(CNCc3cccnc3)cs2)cc1C(F)(F)F [compound 260, N-(4-(pentyloxy)-3-(trifluoromethyl)phenyl)-4-((pyridin-3-ylmethylamino)methyl)thia-zol-2-amine] | < 1
CCCCCOc1ccc(Nc2nc(CNc3ccc(Cl)c(Cl)c3)cs2)cc1C(F)(F)F [compound 261] | 1 to 10
CCCCCOc1ccc(Nc2nc(-c3csc(N)n3)cs2)cc1C(F)(F)F [compound 262, 4-(2-aminothiazol-4-yl)-N-(4-(pentyloxy)-3-(trifluoromethyl)phenyl)thia-zol-2-amine] | < 1
CCCCCOc1ccc(Nc2nc(-c3cn4cccnc4n3)cs2)cc1C(F)(F)F [compound 263, 4-(imidazo[1,2-a]pyrimidin-2-yl)-N-(4-(pentyloxy)-3-(trifluoromethyl)phenyl)thia-zol-2-amine] | < 1
CCCCCOc1ccc(Nc2nc(-c3ccc(CO)nc3)cs2)cc1C(F)(F)F [compound 264, (5-(2-(4-(pentyloxy)-3-(trifluoromethyl)phenyl-amino)thiazol-4-yl)pyridin-2-yl)methanol] | < 1
CCCCCOc1ccc(Nc2nc(CN3CCN(C(=O)OC(C)(C)C)CC3)cs2)cc1C(F)(F)F [compound 265, tert-butyl 4-((2-(4-(pentyloxy)-3-(trifluoromethyl)phenyl-amino)thiazol-4-yl)methyl)piperazine-1-carboxylate] | < 1
CCCCCOc1ccc(Nc2nc(CN3CCC(N(C)C(=O)OC(C)(C)C)C3)cs2)cc1C(F)(F)F (centres unmarked) [compound 266, tert-butyl methyl(1-((2-(4-(pentyloxy)-3-(trifluoromethyl)phenyl-amino)thiazol-4-yl)methyl)pyrrolidin-3-yl)carbamate] | < 1
